The values below come from ChEMBL document CHEMBL1140941 (J Med Chem, 2009).

Molecules are shown by their SMILES. Active and inactive are the calls of the source. The calls are words filed in the database; no cut-off is given here.

Test [1] has as its target Mineralocorticoid receptor (Homo sapiens, UniProt P08235). Briefly: Antagonist activity at gal-MR expressed in african green monkey CV1 cells co-expressing MH100 by luciferase reporter gene assay. The class given is functional, cell-based, CV-1.
In test [2] the target is T1, Bile acid receptor (Homo sapiens) (UniProt Q96RI1).
T1 sequence (whole entry): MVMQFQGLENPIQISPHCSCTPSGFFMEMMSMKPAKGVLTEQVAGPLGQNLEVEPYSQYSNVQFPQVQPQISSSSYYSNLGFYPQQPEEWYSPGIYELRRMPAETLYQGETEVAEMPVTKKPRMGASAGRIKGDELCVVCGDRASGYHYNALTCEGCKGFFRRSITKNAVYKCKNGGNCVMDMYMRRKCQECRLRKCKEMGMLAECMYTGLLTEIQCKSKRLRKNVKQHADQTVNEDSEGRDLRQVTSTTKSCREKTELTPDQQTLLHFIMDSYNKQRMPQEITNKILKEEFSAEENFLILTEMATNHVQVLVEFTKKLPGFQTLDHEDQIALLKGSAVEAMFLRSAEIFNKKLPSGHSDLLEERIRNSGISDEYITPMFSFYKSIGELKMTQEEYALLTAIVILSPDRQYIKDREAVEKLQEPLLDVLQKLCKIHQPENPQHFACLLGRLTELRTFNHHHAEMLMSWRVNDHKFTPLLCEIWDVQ
The test is described as follows: Agonist activity at human FXR expressed in african green monkey CV1 cells co-expressing ECRE with RXR co-factor up to 10 uM by luciferase reporter gene assay relative to CDCA. As to conditions: CV-1. The class given is functional, cell-based.

Test [3] has as its system Mus musculus. Briefly: Reduction of plasma total cholesterol level in western diet-induced hyperlipidemia LDLR knockout mouse model at 1 mg/kg, po administered for 6 weeks. The class given is functional. Also noted: scale not given: the % may be the effect or the level left.
Test [4] has as its system Mus musculus. The test is described as follows: Reduction of plasma triglyceride level in western diet-induced hyperlipidemia LDLR knockout mouse model at 3 mg/kg, po administered for 6 weeks. The class given is functional. Also noted: scale not given: the % may be the effect or the level left.
Test [5] addresses T2, Peroxisome proliferator-activated receptor gamma (Homo sapiens) (UniProt P37231).
T2 sequence (whole entry): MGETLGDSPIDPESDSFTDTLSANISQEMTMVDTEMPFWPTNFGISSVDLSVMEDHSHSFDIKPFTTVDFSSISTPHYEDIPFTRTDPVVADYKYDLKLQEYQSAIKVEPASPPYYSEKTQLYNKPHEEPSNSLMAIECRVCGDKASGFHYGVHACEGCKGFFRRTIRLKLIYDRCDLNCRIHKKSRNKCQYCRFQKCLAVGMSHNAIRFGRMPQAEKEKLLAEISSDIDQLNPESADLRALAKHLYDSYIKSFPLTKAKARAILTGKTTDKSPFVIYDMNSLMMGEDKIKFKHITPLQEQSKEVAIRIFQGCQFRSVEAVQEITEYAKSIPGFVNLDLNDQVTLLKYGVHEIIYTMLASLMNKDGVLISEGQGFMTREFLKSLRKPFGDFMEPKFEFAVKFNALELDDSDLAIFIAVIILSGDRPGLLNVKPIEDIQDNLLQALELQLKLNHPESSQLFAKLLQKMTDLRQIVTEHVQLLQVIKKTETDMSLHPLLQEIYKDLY
Briefly: Agonist activity at PPARgamma expressed in african green monkey CV1 cells co-expressing PPRE up to 10 uM by luciferase reporter gene assay relative to control. The format is functional, cell-based. The conditions noted are these: CV-1. In general terms: In a reporter assay the amount or activity of a reporter protein is the signal.

The target of test [6] is T3, Peroxisome proliferator-activated receptor delta (Homo sapiens) (UniProt Q03181).
T3 sequence (whole entry): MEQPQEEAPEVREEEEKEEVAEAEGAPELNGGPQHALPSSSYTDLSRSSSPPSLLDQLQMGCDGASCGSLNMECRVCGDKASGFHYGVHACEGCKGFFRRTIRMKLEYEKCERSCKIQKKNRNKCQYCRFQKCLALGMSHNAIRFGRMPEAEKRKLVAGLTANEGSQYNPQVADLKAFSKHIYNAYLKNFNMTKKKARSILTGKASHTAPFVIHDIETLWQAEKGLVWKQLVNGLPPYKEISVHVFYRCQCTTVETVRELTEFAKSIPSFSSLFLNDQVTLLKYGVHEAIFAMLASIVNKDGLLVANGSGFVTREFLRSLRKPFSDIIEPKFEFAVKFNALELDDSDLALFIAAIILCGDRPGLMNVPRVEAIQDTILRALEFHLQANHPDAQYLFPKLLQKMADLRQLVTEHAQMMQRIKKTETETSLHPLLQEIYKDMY
Briefly: Antagonist activity at PPARdelta expressed in african green monkey CV1 cells co-expressing MH100 by luciferase reporter gene assay. The format is functional, cell-based. The conditions noted are these: CV-1.

Test [7] has as its target T4, Androgen receptor (Homo sapiens) (UniProt P10275).
T4 sequence (whole entry): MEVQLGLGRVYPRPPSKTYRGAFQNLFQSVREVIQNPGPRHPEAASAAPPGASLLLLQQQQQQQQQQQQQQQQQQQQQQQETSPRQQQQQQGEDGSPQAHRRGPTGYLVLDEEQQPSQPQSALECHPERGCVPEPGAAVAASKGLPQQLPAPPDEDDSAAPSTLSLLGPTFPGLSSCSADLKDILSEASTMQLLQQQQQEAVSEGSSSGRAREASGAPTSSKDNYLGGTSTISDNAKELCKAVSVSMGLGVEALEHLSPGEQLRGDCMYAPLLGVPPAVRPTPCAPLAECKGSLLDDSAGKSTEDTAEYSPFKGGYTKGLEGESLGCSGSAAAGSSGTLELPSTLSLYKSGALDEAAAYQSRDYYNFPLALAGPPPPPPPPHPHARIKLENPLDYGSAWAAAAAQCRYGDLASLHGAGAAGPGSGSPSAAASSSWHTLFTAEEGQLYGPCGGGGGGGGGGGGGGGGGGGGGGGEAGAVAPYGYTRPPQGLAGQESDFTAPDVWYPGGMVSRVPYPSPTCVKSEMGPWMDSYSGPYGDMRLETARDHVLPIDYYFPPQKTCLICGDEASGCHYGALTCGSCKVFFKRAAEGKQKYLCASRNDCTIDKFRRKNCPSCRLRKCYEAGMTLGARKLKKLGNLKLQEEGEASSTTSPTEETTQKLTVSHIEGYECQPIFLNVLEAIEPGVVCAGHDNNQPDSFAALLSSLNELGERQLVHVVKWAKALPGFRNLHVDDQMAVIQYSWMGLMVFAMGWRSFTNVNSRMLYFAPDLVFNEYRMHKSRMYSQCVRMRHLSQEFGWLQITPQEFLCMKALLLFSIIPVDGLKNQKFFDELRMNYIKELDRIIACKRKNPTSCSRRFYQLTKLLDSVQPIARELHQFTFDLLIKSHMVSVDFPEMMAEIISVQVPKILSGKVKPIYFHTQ
The test is described as follows: Agonist activity at human gal-AR expressed in african green monkey CV1 cells co-expressing MH100 with pGRIP1 co-factor up to 10 uM by luciferase reporter gene assay relative to control. The class given is functional, cell-based. As to conditions: CV-1.

The target of test [8] is Retinoic acid receptor RXR-alpha (Homo sapiens) (UniProt P19793). The test is described as follows: Agonist activity at RXRalpha-LBD expressed in african green monkey CV1 cells co-expressing MH100 by luciferase reporter gene assay. The conditions noted are these: CV-1. The class given is functional, cell-based.
Chain of Retinoic acid receptor RXR-alpha (Homo sapiens) (P19793 whole entry, the tested form may be a part): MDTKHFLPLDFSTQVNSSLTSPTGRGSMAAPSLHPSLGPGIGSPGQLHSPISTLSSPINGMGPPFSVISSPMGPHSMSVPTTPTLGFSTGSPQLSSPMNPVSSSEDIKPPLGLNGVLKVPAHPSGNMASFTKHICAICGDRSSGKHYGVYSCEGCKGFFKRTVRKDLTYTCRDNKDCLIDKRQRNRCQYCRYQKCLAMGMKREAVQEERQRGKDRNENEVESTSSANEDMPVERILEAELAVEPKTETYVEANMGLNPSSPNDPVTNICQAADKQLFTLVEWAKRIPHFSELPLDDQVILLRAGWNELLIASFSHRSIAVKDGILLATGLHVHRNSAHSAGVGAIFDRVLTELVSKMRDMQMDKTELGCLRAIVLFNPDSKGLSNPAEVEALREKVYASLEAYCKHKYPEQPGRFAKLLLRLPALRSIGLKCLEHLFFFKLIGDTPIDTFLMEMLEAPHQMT

Chain of Mineralocorticoid receptor (P08235 whole entry): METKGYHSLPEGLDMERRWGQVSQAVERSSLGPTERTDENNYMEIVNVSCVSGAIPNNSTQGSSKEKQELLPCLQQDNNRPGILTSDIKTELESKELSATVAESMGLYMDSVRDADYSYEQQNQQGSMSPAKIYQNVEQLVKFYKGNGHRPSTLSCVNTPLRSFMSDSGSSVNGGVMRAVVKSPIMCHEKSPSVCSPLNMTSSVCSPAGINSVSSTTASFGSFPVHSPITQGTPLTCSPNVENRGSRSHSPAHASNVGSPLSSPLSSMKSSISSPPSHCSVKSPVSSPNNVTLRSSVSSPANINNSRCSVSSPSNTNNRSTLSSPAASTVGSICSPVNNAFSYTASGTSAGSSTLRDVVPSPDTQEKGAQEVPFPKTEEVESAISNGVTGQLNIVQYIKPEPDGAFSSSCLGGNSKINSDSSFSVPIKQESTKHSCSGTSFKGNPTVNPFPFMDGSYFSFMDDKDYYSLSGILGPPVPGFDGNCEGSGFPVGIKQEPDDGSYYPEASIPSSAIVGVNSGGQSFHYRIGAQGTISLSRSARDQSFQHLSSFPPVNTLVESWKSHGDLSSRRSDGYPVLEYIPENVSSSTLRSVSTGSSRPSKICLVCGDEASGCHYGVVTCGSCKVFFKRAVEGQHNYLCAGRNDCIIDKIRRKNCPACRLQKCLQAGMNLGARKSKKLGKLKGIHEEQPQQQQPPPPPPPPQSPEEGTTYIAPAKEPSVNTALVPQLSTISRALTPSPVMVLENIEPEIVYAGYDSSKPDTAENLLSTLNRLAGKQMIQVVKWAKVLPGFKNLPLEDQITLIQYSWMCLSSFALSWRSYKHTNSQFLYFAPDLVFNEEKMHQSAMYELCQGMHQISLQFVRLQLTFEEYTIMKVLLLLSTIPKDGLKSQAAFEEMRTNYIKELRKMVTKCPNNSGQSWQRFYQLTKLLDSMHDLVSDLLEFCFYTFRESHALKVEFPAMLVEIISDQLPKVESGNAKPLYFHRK

Regarding `CC(C)OC(=O)C1=CN(C(=O)c2ccc(F)c(F)c2)CC(C)(C)c2c1[nH]c1ccccc21` [TUROFEXORATE ISOPROPYL], the midpoint of inhibition in test [1], the IC50, lay at 10 µM. In test [2], this compound had an Efficacy of 149%. Further, the values for the Activity in test [3] and in test [4] were 23% and 39%, respectively. Further, the result in test [5], in test [6], in test [7] and in test [8] was inactive.
